Results on 26 compounds are retold here after patent publication US20220389009A1, “SUBSTITUTED 1,6-NAPHTHYRIDINE INHIBITORS OF CDK5” (Goldfinch Bio, Inc., priority 2019, published 2022).

Where two headings read alike, the source gives them in different places.

One assay has as its target CDK5/p25 (Homo sapiens, UniProt Q00535). Description: CDK5 mobility shift assay (enzymatic activity of CDK5/p25). Conditions: for CDK5/CDK2 specificity: fold more active against CDK5 than CDK2. The format is biochemical. An outline of the steps:
(§1)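 Carna CDK5/p25 (0.154 nM) or CDK2/CycA2 (1.25 nM) was preincubated 30 min with compound, ATP ([…] for CDK5; 37 μM for CDK2) and 10 mM MgCl2 in HEPES pH 7.5. The reaction was started with 1.5 μM FL peptide (29 for CDK5, 18 for CDK2) and run 60 min (CDK5) or 120 min (CDK2) at room temperature. Product was read by mobility shift, with IC50 from a 4-parameter fit.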

In the next assay the target is CDK2/CycA2 (Homo sapiens, UniProt P24941). Description: CDK2 mobility shift assay (enzymatic activity of CDK2/CycA2). The format is biochemical. An outline of the steps:
as §1

The mark [1] stands for this setting: 0.154 nM CDK5/p25, FL peptide 29, 60 min at room temperature, read-out: CDK5 IC50.
The mark [2] stands for this setting: 1.25 nM CDK2/CycA2, 37 μM ATP, FL Peptide 18, 120 min at room temperature, read-out: CDK2 IC50.

Sequence of CDK5/p25 (Q00535 whole entry): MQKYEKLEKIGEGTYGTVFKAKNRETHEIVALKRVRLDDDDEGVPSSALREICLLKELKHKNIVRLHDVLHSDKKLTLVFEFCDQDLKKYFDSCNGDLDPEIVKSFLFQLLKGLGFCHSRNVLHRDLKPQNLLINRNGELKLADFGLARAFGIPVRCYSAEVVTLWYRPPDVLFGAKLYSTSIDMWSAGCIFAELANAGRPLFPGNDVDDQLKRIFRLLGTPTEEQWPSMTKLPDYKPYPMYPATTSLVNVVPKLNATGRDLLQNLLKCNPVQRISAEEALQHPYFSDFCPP
Sequence of CDK5/p25 (Q15078 99-307 partner limits assumed): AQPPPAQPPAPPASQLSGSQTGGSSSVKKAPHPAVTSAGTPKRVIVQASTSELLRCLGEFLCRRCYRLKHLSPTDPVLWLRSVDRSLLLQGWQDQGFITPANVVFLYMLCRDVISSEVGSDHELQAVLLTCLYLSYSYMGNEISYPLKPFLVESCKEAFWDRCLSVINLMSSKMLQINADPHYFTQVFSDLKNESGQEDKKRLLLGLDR

On to `O=C(O)CN(c1ccc2cnc(Nc3ccc(-n4ccc(CO)n4)cc3F)cc2n1)C1CCNCC1` [Compound 101, [[7-([2-fluoro-4-[3-(hydroxymethyl)pyrazol-1-yl]phenyl]amino)-1,6-naphthyridin-2-yl](piperidin-4-yl)amino]acetic acid], for which the IC50 at CDK5/p25 (CDK5 IC50) was 0.01 to 0.1 µM; at CDK2/CycA2 (CDK2 IC50) it was over 1 µM. Moreover, at CDK5/p25, the CDK5/CDK2 specificity result was “++ (greater than 10-fold and less than or equal to 100-fold more active against CDK5 than CDK2)”.
As to `Fc1cc(-n2cccn2)ccc1Nc1cc2nc(CC3CCNCC3)ccc2cn1` [Compound 124, N-[2-fluoro-4-(pyrazol-1-yl)phenyl]-2-(piperidin-4-ylmethyl)-1,6-naphthyridin-7-amine], the results for the IC50 on CDK5/p25 (setting [1]) and at CDK2/CycA2 (setting [2]) were 0.01 to 0.1 µM and 0.1 to 1 µM, respectively. Further, on CDK5/p25, the CDK5/CDK2 specificity result is “++ (greater than 10-fold and less than or equal to 100-fold more active against CDK5 than CDK2)”.
Consider `CN1CCC(S(=O)(=O)c2ccc3cnc(Nc4ccc5oc(=O)ccc5c4)cc3n2)CC1` [Compound 272], for which the IC50 is under 0.01 µM on CDK5/p25 (setting [1]) and 0.1 to 1 µM on CDK2/CycA2 (setting [2]). Besides, the CDK5/CDK2 specificity result on CDK5/p25 is “++ (greater than 10-fold and less than or equal to 100-fold more active against CDK5 than CDK2)”.
In the case of `NC1CCN(C(=O)c2ccc3cnc(Nc4ccc(-n5cccn5)cc4F)cc3n2)C1` (stereo not drawn) [Compound 215, 2-(3-aminopyrrolidine-1-carbonyl)-N-[2-fluoro-4-(pyrazol-1-yl)phenyl]-1,6-naphthyridin-7-amine], the results for the IC50 at CDK5/p25 (setting [1]) and on CDK2/CycA2 (setting [2]) were 0.1 to 1 µM and over 1 µM, respectively. The CDK5/CDK2 specificity entry at CDK5/p25 is listed as “+ (10-fold or less more active against CDK5 than CDK2)”.
The corresponding values for `C=C(c1ccc2cnc(Nc3ccc(-n4ccc(CO)n4)cc3F)cc2n1)C1CCNCC1` [Compound 139, [1-[3-fluoro-4-([2-[1-(piperidin-4-yl)ethenyl]-1,6-naphthyridin-7-yl]amino)phenyl]pyrazol-3-yl]methanol] are under 0.01 µM, 0.1 to 1 µM and “+++ (greater than 100-fold more active against CDK5 than CDK2)”.
Consider `CN1CCC(N(Cc2cn[nH]c2)c2ccc3cnc(Nc4ccc(-n5ccc(CO)n5)cc4F)cc3n2)CC1` [Compound 309, [1-[3-fluoro-4-([2-[(1-methylpiperidin-4-yl) (1H-pyrazol-4-ylmethyl)amino]-1,6-naphthyridin-7-yl]amino)phenyl]pyrazol-3-yl]methanol], for which the IC50 at CDK5/p25 (setting [1]) was 0.01 to 0.1 µM; at CDK2/CycA2 (setting [2]), over 1 µM. Further, the CDK5/CDK2 specificity entry on CDK5/p25 was “++ (greater than 10-fold and less than or equal to 100-fold more active against CDK5 than CDK2)”.
Consider `OCc1ccn(-c2ccc(Nc3cc4nc(C(CO)C5CCNCC5)ccc4cn3)c(F)c2)n1` (stereo not drawn) [Compound 142], for which the results for the IC50 on CDK5/p25 (setting [1]) and on CDK2/CycA2 (setting [2]) were 0.1 to 1 µM and over 1 µM, respectively. Further, the CDK5/CDK2 specificity result on CDK5/p25 is “+ (10-fold or less more active against CDK5 than CDK2)”.
`CN1CCC(S(=O)(=O)c2ccc3cnc(Nc4ccc(-n5cccn5)cc4F)cc3n2)CC1` [Compound 158, N-[2-fluoro-4-(pyrazol-1-yl)phenyl]-2-(1-methylpiperidin-4-ylsulfonyl)-1,6-naphthyridin-7-amine]: the IC50 on CDK5/p25 (setting [1]) was under 0.01 µM; at CDK2/CycA2 (setting [2]) it was 0.1 to 1 µM. In addition, the CDK5/CDK2 specificity entry on CDK5/p25 is reported as “+++ (greater than 100-fold more active against CDK5 than CDK2)”.
As for `CN1CCC(C(C)(O)c2ccc3cnc(Nc4cccc(N5CCCC5=O)c4)cc3n2)CC1` (stereo not drawn) [Compound 350], the values for the half-inhibitory concentration (IC50) on CDK5/p25 (setting [1]) and on CDK2/CycA2 (setting [2]) were under 0.01 µM and 0.01 to 0.1 µM, respectively. The CDK5/CDK2 specificity entry at CDK5/p25 is “++ (greater than 10-fold and less than or equal to 100-fold more active against CDK5 than CDK2)”.
For `CN1CCC(C2(c3ccc4cnc(Nc5ccc(-n6cccn6)cc5F)cc4n3)CCO2)CC1` (stereo not drawn) [Compound 365, N-(2-fluoro-4-(1H-pyrazol-1-yl)phenyl)-2-(2-(1-methylpiperidin-4-yl)oxetan-2-yl)-1,6-naphthyridin-7-amine], the 50% inhibitory concentration (IC50) on CDK5/p25 (setting [1]) is 0.01 to 0.1 µM; at CDK2/CycA2 (setting [2]), 0.1 to 1 µM. For the same compound, the CDK5/CDK2 specificity result at CDK5/p25 was “++ (greater than 10-fold and less than or equal to 100-fold more active against CDK5 than CDK2)”.
As to `CN1CCC(S(=O)(=O)c2ccc3cnc(Nc4ccc5c(c4)C(=O)N(C)C5)cc3n2)CC1` [Compound 275], the IC50 at CDK5/p25 (setting [1]) lay within 0.01 to 0.1 µM; at CDK2/CycA2 (setting [2]), 0.1 to 1 µM. The CDK5/CDK2 specificity entry on CDK5/p25 was “++ (greater than 10-fold and less than or equal to 100-fold more active against CDK5 than CDK2)”.
Take `Cc1ccc(F)c(Nc2cc3nc(C(O)(C4CCN(C)CC4)C(F)(F)F)ccc3cn2)c1` (stereo not drawn) [Compound 390]: the IC50 on CDK5/p25 (setting [1]) is 0.1 to 1 µM; on CDK2/CycA2 (setting [2]), over 1 µM. Besides, on CDK5/p25, the CDK5/CDK2 specificity result is “++ (greater than 10-fold and less than or equal to 100-fold more active against CDK5 than CDK2)”.
For the compound `CN1CCC(Sc2ccc3cnc(Nc4ccc(-n5ccc(CO)n5)cc4F)cc3n2)CC1` [Compound 127, [1-[3-fluoro-4-([2-[(1-methylpiperidin-4-yl)sulfanyl]-1,6-naphthyridin-7-yl]amino)phenyl]pyrazol-3-yl]methanol], the IC50 is under 0.01 µM at CDK5/p25 (setting [1]) and 0.01 to 0.1 µM at CDK2/CycA2 (setting [2]). For the same compound, the CDK5/CDK2 specificity result at CDK5/p25 is given as “+++ (greater than 100-fold more active against CDK5 than CDK2)”.
Take `CN1CCC(C(C)(O)c2ccc3cnc(Nc4ccc(-c5cccc(=O)n5C)cc4F)cc3n2)CC1` (stereo not drawn) [Compound 354]: the figures for the IC50 on CDK5/p25 (setting [1]) and at CDK2/CycA2 (setting [2]) were under 0.01 µM and 0.01 to 0.1 µM, respectively. Moreover, the CDK5/CDK2 specificity result on CDK5/p25 is “++ (greater than 10-fold and less than or equal to 100-fold more active against CDK5 than CDK2)”.
With `CCN1CCC(S(=O)(=O)c2ccc3cnc(Nc4ccc(-n5cccn5)cc4F)cc3n2)CC1` [Compound 384], the IC50 at CDK5/p25 (setting [1]) is under 0.01 µM; on CDK2/CycA2 (setting [2]) it was 0.1 to 1 µM. Moreover, the CDK5/CDK2 specificity result on CDK5/p25 is “+++ (greater than 100-fold more active against CDK5 than CDK2)”.
For the compound `Cc1cc(C(=O)NC(C)C)ccc1Nc1cc2nc(S(=O)(=O)C3CCN(C)CC3)ccc2cn1` [Compound 265], the IC50 on CDK5/p25 (setting [1]) was 0.01 to 0.1 µM; on CDK2/CycA2 (setting [2]) it was over 1 µM. The CDK5/CDK2 specificity result on CDK5/p25 is given as “+++ (greater than 100-fold more active against CDK5 than CDK2)”.
The corresponding values for `CS(=O)(=O)N(c1ccc2cnc(Nc3ccc(-n4cccn4)cc3F)cc2n1)C1CCNCC1` [Compound 106, N-(7-[[2-fluoro-4-(pyrazol-1-yl)phenyl]amino]-1,6-naphthyridin-2-yl)-N-(piperidin-4-yl)methanesulfonamide] are over 1 µM, over 1 µM and “+ (10-fold or less more active against CDK5 than CDK2)”.
As to `O=S(=O)(c1ccc2cnc(Nc3ccc(-n4ccc(CO)n4)cc3F)cc2n1)C1CCNCC1` [Compound 123, [1-(3-fluoro-4-[[2-(piperidine-4-sulfonyl)-1,6-naphthyridin-7-yl]amino]phenyl)pyrazol-3-yl]methanol], the IC50 on CDK5/p25 (setting [1]) lay in the range of 0.01 to 0.1 µM; on CDK2/CycA2 (setting [2]), 0.1 to 1 µM. Further, the CDK5/CDK2 specificity result at CDK5/p25 is “++ (greater than 10-fold and less than or equal to 100-fold more active against CDK5 than CDK2)”.
On to `N[C@H]1CC[C@@H](Sc2ccc3cnc(Nc4ccc(-n5cccn5)cc4F)cc3n2)CC1` [Compound 121, N-[2-fluoro-4-(pyrazol-1-yl)phenyl]-2-[[(1s,4s)-4-aminocyclohexyl]sulfanyl]-1,6-naphthyridin-7-amine], for which the IC50 at CDK5/p25 (setting [1]) is under 0.01 µM; at CDK2/CycA2 (setting [2]) it was 0.01 to 0.1 µM. The CDK5/CDK2 specificity result at CDK5/p25 is on record as “+ (10-fold or less more active against CDK5 than CDK2)”.
For `CN1CCC(S(=O)(=O)c2ccc3cnc(Nc4cccc(N5CCOCC5)c4)cc3n2)CC1` [Compound 273], in that order: under 0.01 µM, 0.1 to 1 µM and “+++ (greater than 100-fold more active against CDK5 than CDK2)”.
For `CN1CCC(C(C)(O)c2ccc3cnc(Nc4ccc(S(C)(=O)=O)cc4)cc3n2)CC1` (stereo not drawn) [Compound 370], in that order: under 0.01 µM, under 0.01 µM and “+ (10-fold or less more active against CDK5 than CDK2)”.
The corresponding values for `CN1CCC(C(O)c2ccc3cnc(Nc4ccc(-n5cccn5)cc4F)cc3n2)CC1` (single isomer, unassigned) [Compound 176, (7-[[2-fluoro-4-(pyrazol-1-yl)phenyl]amino]-1,6-naphthyridin-2-yl) (1-methylpiperidin-4-yl)methanol] are 0.1 to 1 µM, 0.1 to 1 µM and “+ (10-fold or less more active against CDK5 than CDK2)”.
`CN1CCC(S(=O)(=O)c2ccc3cnc(Nc4ccc(-c5cccn(C)c5=O)cc4F)cc3n2)CC1` [Compound 378]: the results for the IC50 on CDK5/p25 (setting [1]) and at CDK2/CycA2 (setting [2]) were 0.01 to 0.1 µM and over 1 µM, respectively. Besides, the CDK5/CDK2 specificity entry at CDK5/p25 is recorded as “+++ (greater than 100-fold more active against CDK5 than CDK2)”.
The corresponding values for `Cc1cccc(Nc2cc3nc(S(=O)(=O)C4CCN(C)CC4)ccc3cn2)c1` [Compound 382] are under 0.01 µM, 0.01 to 0.1 µM and “+++ (greater than 100-fold more active against CDK5 than CDK2)”.
Take `CC(c1ccc2cnc(Nc3ccc(-c4noc(=O)[nH]4)cc3F)cc2n1)C1CCN(C)CC1` (racemic) [Compound 368]: the figures for the IC50 at CDK5/p25 (setting [1]) and at CDK2/CycA2 (setting [2]) were under 0.01 µM and 0.1 to 1 µM, respectively. Further, at CDK5/p25, the CDK5/CDK2 specificity entry was “++ (greater than 10-fold and less than or equal to 100-fold more active against CDK5 than CDK2)”.
In the case of `CC1CCN(c2ccc(Nc3cc4nc(S(=O)(=O)C5CCN(C)CC5)ccc4cn3)cc2)CC1` [Compound 308], the IC50 at CDK5/p25 (setting [1]) is under 0.01 µM; at CDK2/CycA2 (setting [2]) it was 0.1 to 1 µM. In addition, at CDK5/p25, the CDK5/CDK2 specificity entry is on record as “+++ (greater than 100-fold more active against CDK5 than CDK2)”.
